Data: PubChem BioAssay (NCI)
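Assay format: 96-well plates, 48-hour exposure. The concentration for 50% growth inhibition is given as GI50. TGI: concentration producing complete growth inhibition.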

Tests used:
Assay in all cases: inhibition of tumour cell growth, NCI panel, 48 h
OVCAR-8 ovarian = tested on: OVCAR-8 ovarian
BT-549 breast = tested on: BT-549 breast
CAKI-1 renal = tested on: CAKI-1 renal
RXF 393 renal = tested on: RXF 393 renal
COLO 205 colon = tested on: COLO 205 colon
NCI/ADR-RES ovarian = tested on: NCI/ADR-RES ovarian
SR leukemia = tested on: SR leukemia
K-562 leukemia = tested on: K-562 leukemia
CCRF-CEM leukemia = tested on: CCRF-CEM leukemia
SK-MEL-2 melanoma = tested on: SK-MEL-2 melanoma
M14 melanoma = tested on: M14 melanoma
HCT-15 colon = tested on: HCT-15 colon
OVCAR-5 ovarian = tested on: OVCAR-5 ovarian
U251 CNS = tested on: U251 CNS
IGROV1 ovarian = tested on: IGROV1 ovarian
UACC-62 melanoma = tested on: UACC-62 melanoma
NCI-H226 lung = tested on: NCI-H226 lung
SF-539 CNS = tested on: SF-539 CNS
NCI-H460 lung = tested on: NCI-H460 lung
EKVX NSCLC = tested on: EKVX NSCLC
NCI-H522 lung = tested on: NCI-H522 lung
DU-145 prostate = tested on: DU-145 prostate
T-47D breast = tested on: T-47D breast
SNB-19 CNS = tested on: SNB-19 CNS
HOP-62 NSCLC = tested on: HOP-62 NSCLC
PC-3 prostate = tested on: PC-3 prostate
RPMI-8226 leukemia = tested on: RPMI-8226 leukemia
A498 renal = tested on: A498 renal
ACHN renal = tested on: ACHN renal
MDA-MB-231 breast = tested on: MDA-MB-231 breast
A549 NSCLC = tested on: A549 NSCLC
HCC-2998 colon = tested on: HCC-2998 colon
HS 578T breast = tested on: HS 578T breast
SK-OV-3 ovarian = tested on: SK-OV-3 ovarian
NCI-H23 lung = tested on: NCI-H23 lung
786-0 renal = tested on: 786-0 renal
KM12 colon = tested on: KM12 colon
MCF7 breast = tested on: MCF7 breast
SK-MEL-5 melanoma = tested on: SK-MEL-5 melanoma
MDA-MB-435 = tested on: MDA-MB-435
OVCAR-3 ovarian = tested on: OVCAR-3 ovarian
UO-31 renal = tested on: UO-31 renal
LOX IMVI melanoma = tested on: LOX IMVI melanoma
SF-295 CNS = tested on: SF-295 CNS
MOLT-4 leukemia = tested on: MOLT-4 leukemia
SW-620 colon = tested on: SW-620 colon
SN12C renal = tested on: SN12C renal
HCT-116 colon = tested on: HCT-116 colon
OVCAR-4 ovarian = tested on: OVCAR-4 ovarian
TK-10 renal = tested on: TK-10 renal
MALME-3M melanoma = tested on: MALME-3M melanoma
SNB-75 CNS = tested on: SNB-75 CNS
SK-MEL-28 melanoma = tested on: SK-MEL-28 melanoma
SF-268 CNS = tested on: SF-268 CNS
HT29 colon = tested on: HT29 colon
HOP-92 NSCLC = tested on: HOP-92 NSCLC
HL-60(TB) leukemia = tested on: HL-60(TB) leukemia
MDA-N = tested on: MDA-N
UACC-257 melanoma = tested on: UACC-257 melanoma

COc1cccc(Oc2ccccc2NC(=O)CNC(=O)c2cccc3ccccc23)c1
GI50 (OVCAR-8 ovarian): 684 nM
TGI (OVCAR-8 ovarian): > 25000 nM
GI50 (BT-549 breast): 298 nM
TGI (BT-549 breast): 10200 nM
GI50 (CAKI-1 renal): 917 nM
TGI (CAKI-1 renal): > 25000 nM
GI50 (RXF 393 renal): 165 nM
TGI (RXF 393 renal): 2190 nM
GI50 (COLO 205 colon): 283 nM
TGI (COLO 205 colon): 949 nM
GI50 (NCI/ADR-RES ovarian): 238 nM
TGI (NCI/ADR-RES ovarian): 5690 nM
GI50 (SR leukemia): 115 nM
TGI (SR leukemia): > 25000 nM
GI50 (K-562 leukemia): 130 nM
TGI (K-562 leukemia): > 25000 nM
GI50 (CCRF-CEM leukemia): 360 nM
TGI (CCRF-CEM leukemia): > 25000 nM
GI50 (SK-MEL-2 melanoma): 181 nM
TGI (SK-MEL-2 melanoma): > 25000 nM
GI50 (M14 melanoma): 157 nM
TGI (M14 melanoma): > 25000 nM
GI50 (HCT-15 colon): 129 nM
TGI (HCT-15 colon): > 25000 nM
GI50 (OVCAR-5 ovarian): 1130 nM
TGI (OVCAR-5 ovarian): > 25000 nM
GI50 (U251 CNS): 242 nM
TGI (U251 CNS): > 25000 nM
GI50 (IGROV1 ovarian): 1040 nM
TGI (IGROV1 ovarian): > 25000 nM
GI50 (UACC-62 melanoma): 209 nM
TGI (UACC-62 melanoma): > 25000 nM
GI50 (NCI-H226 lung): 2490 nM
TGI (NCI-H226 lung): > 25000 nM
GI50 (SF-539 CNS): 225 nM
TGI (SF-539 CNS): 1070 nM
GI50 (NCI-H460 lung): 298 nM
TGI (NCI-H460 lung): 4530 nM
GI50 (EKVX NSCLC): 1280 nM
TGI (EKVX NSCLC): > 25000 nM
GI50 (NCI-H522 lung): 176 nM
TGI (NCI-H522 lung): 2020 nM
GI50 (DU-145 prostate): 703 nM
TGI (DU-145 prostate): > 25000 nM
GI50 (T-47D breast): 138 nM
TGI (T-47D breast): 17600 nM
GI50 (SNB-19 CNS): 617 nM
TGI (SNB-19 CNS): > 25000 nM
GI50 (HOP-62 NSCLC): 302 nM
TGI (HOP-62 NSCLC): > 25000 nM
GI50 (PC-3 prostate): 284 nM
TGI (PC-3 prostate): > 25000 nM
GI50 (RPMI-8226 leukemia): 953 nM
TGI (RPMI-8226 leukemia): 13700 nM
GI50 (A498 renal): 115 nM
TGI (A498 renal): 2110 nM
GI50 (ACHN renal): 398 nM
TGI (ACHN renal): > 25000 nM
GI50 (MDA-MB-231 breast): 776 nM
TGI (MDA-MB-231 breast): 7680 nM
GI50 (A549 NSCLC): 315 nM
TGI (A549 NSCLC): > 25000 nM
GI50 (HCC-2998 colon): 1250 nM
TGI (HCC-2998 colon): > 25000 nM
GI50 (HS 578T breast): 381 nM
TGI (HS 578T breast): > 25000 nM
GI50 (SK-OV-3 ovarian): 494 nM
TGI (SK-OV-3 ovarian): 12300 nM
GI50 (NCI-H23 lung): 735 nM
TGI (NCI-H23 lung): > 25000 nM
GI50 (786-0 renal): 183 nM
TGI (786-0 renal): > 25000 nM
GI50 (KM12 colon): 190 nM
TGI (KM12 colon): 19600 nM
GI50 (MCF7 breast): 100 nM
TGI (MCF7 breast): > 25000 nM
GI50 (SK-MEL-5 melanoma): 216 nM
TGI (SK-MEL-5 melanoma): 3650 nM
GI50 (MDA-MB-435): 71.1 nM
TGI (MDA-MB-435): 256 nM
GI50 (OVCAR-3 ovarian): 99.9 nM
TGI (OVCAR-3 ovarian): 1250 nM
GI50 (UO-31 renal): 1800 nM
TGI (UO-31 renal): > 25000 nM
GI50 (LOX IMVI melanoma): 267 nM
TGI (LOX IMVI melanoma): > 25000 nM
GI50 (SF-295 CNS): 111 nM
TGI (SF-295 CNS): > 25000 nM
GI50 (MOLT-4 leukemia): 654 nM
TGI (MOLT-4 leukemia): > 25000 nM
GI50 (SW-620 colon): 164 nM
TGI (SW-620 colon): > 25000 nM
GI50 (SN12C renal): 1440 nM
TGI (SN12C renal): > 25000 nM
GI50 (HCT-116 colon): 96.2 nM
TGI (HCT-116 colon): 3770 nM
GI50 (OVCAR-4 ovarian): 770 nM
TGI (OVCAR-4 ovarian): > 25000 nM
GI50 (TK-10 renal): 1580 nM
TGI (TK-10 renal): > 25000 nM
GI50 (MALME-3M melanoma): 16900 nM
TGI (MALME-3M melanoma): > 25000 nM
GI50 (SNB-75 CNS): 128 nM
TGI (SNB-75 CNS): > 25000 nM
GI50 (SK-MEL-28 melanoma): 4350 nM
TGI (SK-MEL-28 melanoma): > 25000 nM
GI50 (SF-268 CNS): 547 nM
TGI (SF-268 CNS): > 25000 nM
GI50 (HT29 colon): 110 nM
TGI (HT29 colon): 1040 nM
GI50 (HOP-92 NSCLC): 202 nM
TGI (HOP-92 NSCLC): 14900 nM
GI50 (HL-60(TB) leukemia): 81 nM
TGI (HL-60(TB) leukemia): 237 nM

NC(N)=NCCC(O)(P(=O)(O)O)P(=O)(O)O
TGI (BT-549 breast): > 100000 nM
TGI (CAKI-1 renal): > 100000 nM
TGI (RXF 393 renal): > 100000 nM
TGI (COLO 205 colon): > 100000 nM
TGI (MDA-N): > 100000 nM
TGI (NCI/ADR-RES ovarian): > 100000 nM
TGI (M14 melanoma): > 100000 nM
TGI (HCT-15 colon): > 100000 nM
TGI (OVCAR-5 ovarian): > 100000 nM
TGI (IGROV1 ovarian): > 100000 nM
TGI (UACC-62 melanoma): > 100000 nM
TGI (NCI-H226 lung): > 100000 nM
TGI (SF-539 CNS): > 100000 nM
TGI (NCI-H460 lung): > 100000 nM
TGI (EKVX NSCLC): > 100000 nM
TGI (NCI-H522 lung): > 100000 nM
TGI (DU-145 prostate): > 100000 nM
TGI (SNB-19 CNS): > 100000 nM
TGI (HOP-62 NSCLC): > 100000 nM
TGI (PC-3 prostate): > 100000 nM
TGI (ACHN renal): > 100000 nM
TGI (MDA-MB-231 breast): > 100000 nM
TGI (A549 NSCLC): > 100000 nM
TGI (HCC-2998 colon): > 100000 nM
TGI (HS 578T breast): 57400 nM
TGI (SK-OV-3 ovarian): > 100000 nM
TGI (NCI-H23 lung): > 100000 nM
TGI (786-0 renal): > 100000 nM
TGI (KM12 colon): > 100000 nM
TGI (MCF7 breast): > 100000 nM
TGI (SK-MEL-5 melanoma): > 100000 nM
TGI (OVCAR-3 ovarian): > 100000 nM
TGI (UO-31 renal): > 100000 nM
TGI (LOX IMVI melanoma): > 100000 nM
TGI (SF-295 CNS): > 100000 nM
TGI (UACC-257 melanoma): > 100000 nM
TGI (HCT-116 colon): > 100000 nM
TGI (TK-10 renal): > 100000 nM
TGI (MALME-3M melanoma): > 100000 nM
TGI (SF-268 CNS): > 100000 nM
